The target in one series is T1, androgen receptor (Homo sapiens, UniProt P10275, T878A).
T1 construct: This line expresses the androgen receptor and is hormone-dependent; endogenous in cells; host or cells: LNCaP (ATCC, 1740)
T1 sequence (P10275 1-920 T878A): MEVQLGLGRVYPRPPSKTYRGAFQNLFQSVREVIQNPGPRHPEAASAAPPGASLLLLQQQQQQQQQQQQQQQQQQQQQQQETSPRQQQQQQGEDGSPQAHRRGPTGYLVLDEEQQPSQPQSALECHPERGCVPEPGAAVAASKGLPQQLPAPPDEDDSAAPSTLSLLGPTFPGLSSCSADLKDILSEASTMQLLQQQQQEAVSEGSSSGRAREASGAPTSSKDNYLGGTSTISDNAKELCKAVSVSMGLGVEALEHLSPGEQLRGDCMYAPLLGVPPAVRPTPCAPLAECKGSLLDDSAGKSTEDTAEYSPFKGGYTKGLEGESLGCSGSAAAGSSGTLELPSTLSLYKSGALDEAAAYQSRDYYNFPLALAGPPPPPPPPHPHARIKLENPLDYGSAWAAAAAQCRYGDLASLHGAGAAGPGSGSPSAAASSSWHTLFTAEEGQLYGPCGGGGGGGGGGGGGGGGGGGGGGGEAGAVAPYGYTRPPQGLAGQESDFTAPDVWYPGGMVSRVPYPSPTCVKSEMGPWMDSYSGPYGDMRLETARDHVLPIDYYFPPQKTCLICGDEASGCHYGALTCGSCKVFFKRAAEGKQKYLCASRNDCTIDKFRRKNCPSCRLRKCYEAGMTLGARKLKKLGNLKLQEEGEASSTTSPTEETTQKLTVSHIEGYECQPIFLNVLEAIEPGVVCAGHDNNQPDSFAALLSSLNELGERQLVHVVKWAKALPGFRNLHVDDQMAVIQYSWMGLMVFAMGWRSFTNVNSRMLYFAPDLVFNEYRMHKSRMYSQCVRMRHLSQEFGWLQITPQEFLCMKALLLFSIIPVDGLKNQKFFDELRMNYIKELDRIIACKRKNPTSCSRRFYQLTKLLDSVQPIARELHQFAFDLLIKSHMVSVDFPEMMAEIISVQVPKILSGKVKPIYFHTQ
Briefly: Measurement of protein expression of the androgen receptor in LNCaP cells (AR ELISA). To be noted: 3 days treatment, whole cell protein, AR ELISA kit; read-out: IC50 AR destruction in LNCaP. In kind it is cell-based. The method, then:
Measurement of Protein Expression of the Androgen Receptor
The cells of the LNCaP line are seeded at a rate of 2.5 million of cells per 10 cm Petri dish and maintained in 8 ml RPMI-1640 for 4 days. After 4 days incubation, 4 ml of medium were removed from the Petri dish and 5 ml fresh medium was added carefully. 1 ml of compounds 10-fold diluted in complete medium at concentrations from 3×10^-6 M to 10^-8 M. Cells were treated with the compounds for additional 3 days. The whole cell protein was extracted by Nuclear Extract kit and quantitated by the Bradford Protein Assay. The effect of compounds on AR levels in LNCaP cells was then determined by an AR ELISA kit.
For orientation: ELISA stands for enzyme-linked immunosorbent assay.

A short description of series [1]: Evaluation of solubility in potassium phosphate buffer pH 7.4. In kind it is physicochemical. To be noted: aqueous buffer, kinetic from dmso stock; 100 mM potassium phosphate buffer pH 7.4, target 10 μM, 0.1% DMSO, 1 hour room temperature, LC-MS/MS. The method, then: Evaluation of Solubility:
Test compounds were prepared as stock solutions at […] in DMSO. The stock solutions were diluted, in duplicate, into 100 mM potassium phosphate buffer (pH 7.4) to a target concentration of 10 μM with a final DMSO concentration of 0.1%. The solutions were shaken at 1000 rpm for 1 hour at room temperature followed by centrifugation for 10 minutes at 1200 rpm to precipitate un-dissolved particles. The supernatants were transferred to new tubes and the samples were further prepared as follows: • Undiluted: 5 μL of supernatant to 95 μL of ACN containing internal standard (IS) • 1:10 diluted: 10 μL of the supernatant into 90 μL K-buffer, mix, then transfer 5 μL of 1:10 diluted samples to 95 μL ACN containing IS • 1:100 diluted: 10 μL of the supernatant into 990 μL K-buffer, mix, then transfer 5 μL of 1:100 diluted samples to 95 μL of ACN containing IS
Samples (undiluted, 1:10 diluted, and 1:100 diluted) along with the standards were analyzed by LC-MS/MS.

For another series, the system named is VCaP. Nature of the series: Anti-proliferative activity on VCaP in complete medium. To be noted: Homo sapiens, 216 h, Cell-Titer-Glow, reading after 9 days. It is filed as cell-based. The method, then:
(§1) 3. Anti-Proliferative Activity on VCaP in Complete Medium • The cells of the VCaP line (ATCC CRL-2876) are seeded at 20000 cells/well in 90 μl of complete medium in 96-well plates coated with poly-D-lysine (Biocoat, Costar). • Treatment of the cells: 24 h after the seeding, the cells are treated with 10 μl/well of compound diluted in the culture medium. The concentrations used are the following: 1 nM/10/30/100/300/1000/3000/10,000 nM. The cells are incubated for […] at 37° C., 5% CO2. • Reading: After incubation for 9 days, cell proliferation was determined by Cell-Titer-Glow (CTG) Luminescent Cell Viability Assay • Results: The experiments are carried out in duplicate and the best compounds are tested twice. A concentration value inhibiting the cell proliferation by 50% (IC50) is calculated.

The next series deals with DU145. Nature of the series: Anti-proliferative activity on DU145 in complete medium. It is filed as cell-based. The settings on record: Homo sapiens, DU-145, 144 h incubation, Cell-Titer-Glow, line does not express androgen receptor. As for the experimental part: 2. Anti-Proliferative Activity on DU145 in Complete Medium
as §1, with “It is used to evaluate the selectivity of the compounds for androgen receptor expressing cells. No activity of the compounds is expected. •” for “3. Anti-Proliferative Activity on VCaP in Complete Medium •”, “the DU145” for “the VCaP”, “(ATCC HTB-81)” for “(ATCC CRL-2876)”, “at 800” for “at 20000”, “for 6” for “for 9”

For a further series, the system named is LNCaP. Briefly: Anti-proliferative activity on LNCaP in complete medium. The settings on record: Homo sapiens, 144 h incubation, Cell-Titer-Glow. In kind it is cell-based. As for the experimental part: 1. Anti-Proliferative Activity on LNCaP in Complete Medium
The anti-proliferative activity of the compounds of the present invention is determined on LNCaP in complete medium by applying the following experimental procedure:
The LNCaP cell type (ATCC, 1740) originates from a prostate carcinoma. This line expresses the androgen receptor and is hormone-dependent.
as §1, with “Maintenance of” for “3. Anti-Proliferative Activity on VCaP in Complete Medium • The cells of”, “the LNCaP” for “the VCaP”, “line is carried out in complete culture medium: RPMI, 10% of fetal calf serum, 2 mM glutamine, 100 U/ml penicillin, 0.1 mg/ml of streptomycin and 0.01M HEPES, 1 mM sodium pyruvate, […] of D-glucose. • Seeding the plates: The LNCaP line is” for “line (ATCC CRL-2876) are”, “at 20,000” for “at 20000”, “for 6” for “for 9”, “Viability Assay.” for “Viability Assay”

Series [2] deals with human prostate cancer cells. To be noted: agonist activity in place of antagonist activity; cited from earlier work.

Converted amounts (≈) assume the structure as drawn.

Consider `CC1(C)C(=O)N(c2ccc(C#N)c(C(F)(F)F)c2)C(=O)N1C/C=C\CN1C(=O)N(c2ccc(S(C)(=O)=O)c(C(F)(F)F)c2)C(=O)C1(C)C` [Example 1, (Z)-4-(3-(4-(5,5-dimethyl-3-(4-(methylsulfonyl)-3-(trifluoromethyl)phenyl)-2,4-dioxoimidazolidin-1-yl)but-2-en-1-yl)-4,4-dimethyl-2,5-dioxoimidazolidin-1-yl)-2-(trifluoromethyl)benzonitrile], for which, on androgen receptor, the DC50 is 123 nM. Moreover, the solubility (as a rule, the dissolved amount per volume that the medium holds) at 1 h in series [1] worked out at 2.66 µM (≈ 1.86 µg/mL). In addition, the half-maximal inhibitory concentration (IC50) (usually the point on the concentration scale where inhibition reaches its midpoint) is 551 nM in the series on VCaP, more than 10000 nM in the series on DU145 and 313 nM in the series on LNCaP.

Turning to `CC1(C)C(=O)N(c2ccc(S(C)(=O)=O)c(C(F)(F)F)c2)C(=O)N1C/C=C\CN1C(=O)N(c2cnc(C#N)c(C(F)(F)F)c2)C(=O)C1(C)C` [Example 2, (Z)-5-(3-(4-(5,5-dimethyl-3-(4-(methylsulfonyl)-3-(trifluoromethyl)phenyl)-2,4-dioxoimidazolidin-1-yl)but-2-en-1-yl)-4,4-dimethyl-2,5-dioxoimidazolidin-1-yl)-3-(trifluoromethyl)picolinonitrile], the DC50 at androgen receptor turned out to be 946 nM. The compound also came in with a solubility at 1 h in series [1] of 0.14 µM (≈ 0.0981 µg/mL). The IC50 is 1050 nM in the series on VCaP, more than 10000 nM in the series with DU145 and 1590 nM with LNCaP.

In series [1], `CC1(C)C(=O)N(c2ccc(C#N)c(C(F)(F)F)c2)C(=O)N1C/C=C\CN1CC(=O)N(c2ccc(S(C)(=O)=O)c(C(F)(F)F)c2)C1=O` [Example 3, (Z)-4-(4,4-dimethyl-3-(4-(3-(4-(methylsulfonyl)-3-(trifluoromethyl)phenyl)-2,4-dioxoimidazolidin-1-yl)but-2-en-1-yl)-2,5-dioxoimidazolidin-1-yl)-2-(trifluoromethyl)benzonitrile] displayed a solubility at 1 h of 0.53 µM (≈ 0.356 µg/mL). The IC50 with DU145 was more than 10000 nM; in the series on LNCaP, 1120 nM.

Turning to `CC1(C)NC(=O)N(c2ccc([N+](=O)[O-])c(C(F)(F)F)c2)C1=O` [nilutamide], in series [2], the “effect on growth of human prostate cancer cells in culture” value is listed as “capable of stimulating the growth”.
